Reference: PubChem BioAssay (NCI)
Where “and” joins values, the source holds several entries; their conditions need not be identical. Identical values can stand only once.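 Cultured in 96-well plates, cells were exposed to test compound for 48 hours across five concentrations. GI50: concentration for 50% inhibition of growth. The concentration for full growth arrest is given as TGI.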

Legend:
Assay in all cases: growth of human tumour cells (NCI), 48 h
CAKI-1 renal = test system: CAKI-1 renal
CCRF-CEM leukemia = test system: CCRF-CEM leukemia
HCC-2998 colon = test system: HCC-2998 colon
HCT-116 colon = test system: HCT-116 colon
HCT-15 colon = test system: HCT-15 colon
MDA-MB-231 breast = test system: MDA-MB-231 breast
SF-539 CNS = test system: SF-539 CNS
SK-MEL-5 melanoma = test system: SK-MEL-5 melanoma
SR leukemia = test system: SR leukemia
TK-10 renal = test system: TK-10 renal

SMILES | GI50 (CAKI-1 renal) | TGI (CAKI-1 renal) | GI50 (CCRF-CEM leukemia) | TGI (CCRF-CEM leukemia) [µM] | GI50 (HCC-2998 colon) | TGI (HCC-2998 colon) | GI50 (HCT-116 colon) | TGI (HCT-116 colon) | GI50 (HCT-15 colon) | TGI (HCT-15 colon) | GI50 (MDA-MB-231 breast) | TGI (MDA-MB-231 breast) | GI50 (SF-539 CNS) | TGI (SF-539 CNS) | GI50 (SK-MEL-5 melanoma) | TGI (SK-MEL-5 melanoma) | GI50 (SR leukemia) | TGI (SR leukemia) [µM] | GI50 (TK-10 renal) | TGI (TK-10 renal)
CCc1ccc(CCC(=O)Nc2ncc(Cc3ccccc3)s2)o1 | 2.94 µM | > 100 µM | 2.02 µM | > 100 | 3.24 µM | > 100 µM | 1.05 µM | > 100 µM | 0.544 µM | > 100 µM | 2.52 µM | 22.2 µM | 1.67 µM | 4.46 µM | 1.16 µM | > 100 µM | 0.444 µM | > 100 | 23 µM | > 100 µM
CCN(CC)CCCC(C)Nc1cnc(C(=O)Nc2cc(F)cc3cccnc23)cn1 (stereo not given) | 2.89 µM and 2.05 µM | 15.4 µM and 5.71 µM | 2.55 µM and 0.478 µM | 10.6 | 5.01 µM and 1.53 µM | 18.4 µM and 2.97 µM | 2.7 µM and 0.35 µM | 10.1 µM and 1.23 µM | 3.45 µM and 0.751 µM | 13.8 µM and 2.69 µM | 3.42 µM and 0.568 µM | 12.8 µM and 2.02 µM | 10.3 µM and 1.52 µM | 22.2 µM and 2.89 µM | 1.78 µM and 1.58 µM | 3.37 µM and 2.95 µM | 2.66 µM and 1.6 µM |  | 10.4 µM and 1.54 µM | 22.4 µM and 3.12 µM
CCc1nc2ccc(Cc3ccc(C(=O)NO)cc3)cc2c(=O)n1CCc1ccccc1 |  |  | 0.568 µM | > 100 | 1.44 µM | 3.1 µM | 0.388 µM | 1.57 µM | 0.528 µM | 3.07 µM | 1.31 µM | 3.98 µM | 1.46 µM | 3.65 µM | 0.822 µM | 2.1 µM | 0.784 µM | 61 | 1.28 µM | 2.89 µM
c1cncc(CNc2ccccc2-c2nnc(Nc3ccc4c(c3)OCCO4)o2)c1 | 0.215 µM | > 100 µM | 0.126 µM | 51.4 | 0.255 µM |  | 0.071 µM | > 100 µM | 0.107 µM | > 100 µM | 0.644 µM | > 100 µM | 0.115 µM | > 100 µM | 0.0721 µM | 2.03 µM | 0.0424 µM | > 36 | 17 µM | > 100 µM
CN(C)CC#Cc1cccc(C(=O)c2cnn(-c3ccc(F)cc3)c2N)c1 | > 25 µM | > 25 µM | > 25 µM | > 25 | > 25 µM | > 25 µM | > 25 µM | > 25 µM | > 23.8 µM | > 25 µM | > 25 µM | > 25 µM | > 25 µM | > 25 µM | 16.1 µM | > 25 µM | > 18.2 µM | > 25 | > 25 µM | > 25 µM
c1ccc2[nH]c(-c3ccc(OCCCCCOc4ccc(-c5nc6ccccc6[nH]5)cc4)cc3)nc2c1 | 1.97 µM | 6.8 µM | 0.195 µM | 0.54 | 2.31 µM | 7.59 µM | 1.25 µM | 3.87 µM | 1.12 µM | 8.11 µM | 2.07 µM | 7.08 µM | 0.835 µM | 2.3 µM | 1.15 µM | 4.94 µM | 0.241 µM | 0.721 | 2.05 µM | 3.77 µM
CO/N=C1/NC(=O)/C(=C/c2ccc3ncccc3c2)S1 | 8.49 µM | > 25 µM | 10.9 µM | > 25 | > 25 µM | > 25 µM | 17.4 µM | > 25 µM | 9.13 µM | > 25 µM | > 25 µM | > 25 µM | 8.27 µM | > 25 µM | > 14.1 µM | > 25 µM | 14.7 µM | > 25 | 8.01 µM | > 25 µM
Cc1ccc(NS(=O)(=O)c2cc(C)ccc2C)cc1 | 3.25 µM | 29.2 µM | 6.19 µM | > 100 | 7 µM | 28 µM | 3.55 µM | 20.4 µM | 2.46 µM | 33.9 µM | 4.44 µM | 25.7 µM | 4.21 µM | 15.1 µM | 2.79 µM | 13.8 µM | 1.18 µM | 16.5 | 10.2 µM | 37.7 µM
NC1CCC[C@@H](O)[C@H]1O (stereo not given in full) |  | > 100 µM |  | > 100 |  | > 100 µM |  | > 100 µM |  | > 100 µM |  | > 100 µM |  | > 100 µM |  | > 100 µM |  | > 100 | > 100 µM | > 100 µM
Clc1cc(Cl)cc(N2N=C(c3cccc(Nc4ccncc4)c3)CC2c2ccc(Br)cc2)c1 (stereo not given) | 1.54 µM | 2.91 µM | 3.02 µM | 31.2 | 1.77 µM | 3.2 µM |  |  | 1.8 µM | 3.49 µM | 1.51 µM | 2.91 µM | 1.7 µM | 3.12 µM | 1.81 µM | 3.26 µM | 1.48 µM | 3.68 | 1.86 µM | 3.6 µM
CC(=O)Oc1cccc2c1C(=O)C(Br)(Br)CCC2 |  | 10.7 µM |  | 9.91 |  | 31.1 µM |  | 9.66 µM |  | 29.4 µM |  | 8.41 µM |  | 23.1 µM |  | 14.4 µM |  | 8.19 |  | 30.8 µM
Cn1c2ccc([N+](=O)[O-])cc2c(=O)c2c(O)cc(O)cc21 |  | > 100 µM |  | > 100 |  | > 100 µM |  |  |  | > 100 µM |  | > 100 µM |  | 55.2 µM |  | > 100 µM |  | > 100 |  | > 100 µM
Cc1cc(-c2nc3ccc(O)cc3s2)ccc1N |  | > 100 µM | 0.797 µM | > 100 | > 100 µM | > 100 µM | 43.9 µM | > 100 µM | > 100 µM | > 100 µM | 44.7 µM | > 100 µM |  |  | 52.1 µM | > 100 µM | 22 µM | > 100 | 76.8 µM | > 100 µM
Cn1c(=O)c2[nH]c(COCc3nc4c([nH]3)c(=O)n(C)c(=O)n4C)nc2n(C)c1=O |  | > 100 µM |  | > 100 |  |  |  | > 100 µM |  | > 100 µM |  | > 100 µM |  | > 100 µM |  | > 100 µM |  | > 100 |  | > 100 µM
